19 molecules from US8569336B2, “Compounds for the treatment of inflammatory disorders” (priority 2008, dated 2013) can be followed below.

Read-outs that look alike come from different tables or passages of the source.

In assay [1] the target is T1, purified catalytic domain of recombinant human TACE (rhTACEc) (Homo sapiens, UniProt P78536, N452Q/S266A).
T1 construct: 6xHis (C); made in house; host or cells: baculovirus/Hi5 insect cells
The experiment in a line: TACE kinetic assay: cleavage of internally quenched peptide substrate TNF-FRET 2 (Ki). The note with it: TNF-FRET 2 substrate. It is filed as biochemical.

Assay [2] deals with TNF-α production from human whole blood. The assay is described as follows: Inhibition of TNF-α production from human whole blood (hWBA), LPS stimulated, ELISA. In kind it is cell-based. Conditions: Homo sapiens, TNF-α by ELISA, read-out: hWBA (IC50).
The mark [3] stands for this setting: 3.5 h, human whole blood diluted 1:1, LPS stimulated, 3.5 h.
[4] abbreviates: LPS-stimulated human whole blood.

T1 sequence (P78536 215-477 S266A/N452Q): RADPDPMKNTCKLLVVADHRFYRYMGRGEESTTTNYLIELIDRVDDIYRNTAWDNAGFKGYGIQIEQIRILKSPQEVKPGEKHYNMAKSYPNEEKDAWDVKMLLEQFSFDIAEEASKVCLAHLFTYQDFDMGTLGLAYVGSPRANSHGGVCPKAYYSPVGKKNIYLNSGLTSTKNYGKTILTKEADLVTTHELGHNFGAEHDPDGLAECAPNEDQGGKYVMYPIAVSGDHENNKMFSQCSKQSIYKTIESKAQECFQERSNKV

Take `COc1ccc2c(c1)C(=O)N(C[C@@]1(c3cc4cc(C(=O)NCCCC[C@H](NC(=O)CCCC[C@@H]5SCC6NC(=O)NC65)C(=O)O)c(F)cc4o3)NC(=O)NC1=O)C2` (some centres unmarked) [Compound 1283]: in assay [1] (read-out: Ki), the Ki (as a rule, a measure of affinity in units of concentration, obtained from inhibition or displacement) was 0.39 nM. Besides, in assay [2] (setting [3]), the IC50 (in general, the concentration that inhibits the measured activity by half) was found to be 3300 nM.

On to `CN(C)C1CCN(c2ccc3oc(C4(CN5Cc6ccc(Cl)cc6C5=O)NC(=O)NC4=O)cc3n2)CC1` (centres unmarked) [Compound 1291], for which, in assay [1] (read-out: Ki), the Ki was found to be 1.33 nM. The IC50 in assay [2] (setting [3]) turned out to be 1400 nM.

For the molecule `CCN1C[C@@H]2C[C@H]1CN2c1ccc2oc([C@]3(CN4Cc5ccc(OC)c(F)c5C4=O)NC(=O)NC3=O)cc2n1` [Compound 1292], the Ki in assay [1] (read-out: Ki) was 0.86 nM. The IC50 in assay [2] (setting [3]) was 177 nM.

Regarding `CCN1CCN(c2ccc3oc([C@]4(CN5Cc6ccc(OC)c(F)c6C5=O)NC(=O)NC4=O)cc3n2)C[C@H]1C` [Compound 1293], the Ki in assay [1] (read-out: Ki) was 0.79 nM. Besides, the IC50 in assay [2] (setting [3]) turned out to be 112 nM.

For `CCN1CCN(c2ccc3oc([C@]4(CN5Cc6ccc(OC)c(F)c6C5=O)NC(=O)NC4=O)cc3n2)C[C@@H]1C` [Compound 1294], the Ki in assay [1] (read-out: Ki) was found to be 1.1 nM. Moreover, in assay [2] (setting [3]), the IC50 worked out at 275 nM.

Regarding `O=C1NC(=O)C(CN2Cc3ccccc3C2=O)(c2ccc(Br)cc2)N1` (centres unmarked) [Compound 1296], in assay [1] (read-out: Ki), the Ki was 7 nM. For the same molecule, the concentration for half-maximal inhibition (IC50) in assay [2] (setting [3]) is > 10000 nM.

On to `COc1ccc2c(c1F)C(=O)N(C[C@@]1(c3cc4cc(C5(C)NC(=O)NC5=O)c(C)cc4o3)NC(=O)NC1=O)C2` (some centres unmarked) [Compound 1306], for which, in assay [1] (read-out: Ki), the Ki is 1.42 nM. The IC50 in assay [2] (setting [4]) was 414 nM.

`COc1ccc2c(c1)C(=O)N(C[C@@]1(c3cc4nc(-c5cc(O)cc(-c6ccncc6)c5)ccc4o3)NC(=O)NC1=O)C2` [Compound 1308]: the Ki in assay [1] (read-out: Ki) stood at 1.39 nM. Further, the IC50 in assay [2] (setting [4]) came out at 2950 nM.

On to `COc1ccc2c(c1F)C(=O)N(C[C@@]1(c3cc4cc(F)c(C)nc4o3)NC(=O)NC1=O)C2` [Compound 1313], for which the Ki in assay [1] (read-out: Ki) is 0.83 nM. Moreover, the IC50 in assay [2] (setting [4]) was found to be 686 nM.

On to `COc1ccc2c(c1F)C(=O)N(C[C@@]1(c3cc4c(F)cnc(C)c4o3)NC(=O)NC1=O)C2` [Compound 1314], for which the Ki in assay [1] (read-out: Ki) was found to be 1.2 nM. For the same molecule, the IC50 in assay [2] (setting [4]) came out at 727 nM.

For the molecule `COc1ccc2c(c1F)C(=O)N(C[C@@]1(c3cc4nc(-c5cccnc5)c(F)cc4o3)NC(=O)NC1=O)C2` [Compound 1315], the Ki in assay [1] (read-out: Ki) amounted to 0.09 nM. Also, in assay [2] (setting [4]), the IC50 worked out at 1120 nM.

Turning to `COc1ccc2c(c1F)C(=O)N(C[C@@]1(c3cc4cc([C@]5(C)C(=O)NC(=O)N5C)c(F)cc4o3)NC(=O)NC1=O)C2` [Compound 1317], in assay [1] (read-out: Ki), the inhibition constant (Ki) is 0.47 nM. The IC50 in assay [2] (setting [4]) was 234 nM.

In the case of `CCN1CC=C(c2nc3cc([C@]4(CN5Cc6ccc(OC)c(F)c6C5=O)NC(=O)NC4=O)oc3cc2F)CC1` [Compound 1321], the Ki in assay [1] (read-out: Ki) was found to be 0.64 nM. Moreover, the IC50 in assay [2] (setting [4]) stood at 184 nM.

For the molecule `CCCN1CC=C(c2nc3cc([C@]4(CN5Cc6ccc(OC)c(F)c6C5=O)NC(=O)NC4=O)oc3cc2F)CC1` [Compound 1322], the Ki in assay [1] (read-out: Ki) is 0.51 nM. The IC50 in assay [2] (setting [4]) turned out to be 96 nM.

Take `COc1ccc2c(c1F)C(=O)N(C[C@@]1(c3cc4nc(C5CCNCC5)c(F)cc4o3)NC(=O)NC1=O)C2` [Compound 1323]: the Ki in assay [1] (read-out: Ki) is 0.08 nM. In assay [2] (setting [4]), the IC50 stood at 140 nM.

As for `CCCN1CCC(c2nc3cc([C@]4(CN5Cc6ccc(OC)c(F)c6C5=O)NC(=O)NC4=O)oc3cc2F)CC1` [Compound 1324], in assay [1] (Ki), the Ki stood at 0.58 nM. Also, in assay [2] (setting [4]), the IC50 came to 248 nM.

On to `COCCN1CCN(c2ccc3oc([C@]4(CN5Cc6ccc(OC)cc6C5=O)NC(=O)NC4=O)cc3n2)CC1` [Compound 1500], for which the Ki in assay [1] (read-out: Ki) amounted to 1.1 nM. In addition, the IC50 in assay [2] (setting [4]) was found to be 333 nM.

Regarding `COc1ccc2c(c1)C(=O)N(C[C@@]1(c3ccc(-c4cnc(N5CCCC5)nc4)cc3)NC(=O)NC1=O)C2` [Compound 1503], the Ki in assay [1] (read-out: Ki) was found to be 2.4 nM. Further, the IC50 in assay [2] (setting [4]) turned out to be 7090 nM.

Consider `COc1ccc2c(c1F)C(=O)N(C[C@@]1(c3cc4nc(-c5cccc(C#N)c5)ccc4o3)NC(=O)NC1=O)C2` [Compound 1504], for which the Ki in assay [1] (read-out: Ki) was found to be 0.4 nM. Also, the IC50 in assay [2] (setting [4]) is 579 nM.
